In patent publication US12297438B2, “Gene expression elements and systems and use thereof” (GENENEER LTD., priority 2019, dated 2025):
Where a name gives a salt, the structure may show the parent alone.

How the values were obtained:
[1] = system: CCR5 expression in ECE included PBMC cells; settings: 50 μM spermin
Method: Plasmid is transfected in to PBMC cells using standard protocol (lipofectamine) and selected for ECE insertion using NGS analyses. Cells are incubated in CTS™ OpTmizer™ (ThermoFisher A3705001) with or without 50 μM spermin. Cells are then stained with CCR5 antibody (BioLegend 359105) and passed through flow cytometry column to detect the level of CCR5 expression.

[2] = system: Arabidopsis thaliana protoplasts transformed with syz24-2.1 plasmid comprising the ECE within the GUS intron; test: GUS reporter expression in Arabidopsis thaliana protoplasts (ECE within GUS intron); format: cell-based
Method: Arabidopsis protoplasts were prepared as previously described (Wu F-H et al. 2009. Plant methods 5:16 doi: 10.1186/1746-4811-5-16). Plasmids syz24-2.1 and a control plasmid 5060 (constitutive GUS expression) were transformed (in the presence or without 10 μM BENZ (BZ-CAS 121749-39-1-BZ) into protoplasts (Wu et al., supra). Transfected protoplasts were washed and cultured in W5 solution with or without BENZ (BZ) in 1% bovine serum albumin-coated 15 ml tubes for 16 h at 28° C. to allow expression of the transfected DNA. The GUS expression system enables detection of a functional β-glucuronidase when protoplasts expressing the gene are incubated with the enzyme substrate 5-bromo-4-chloro-3-indolyl glucuronide (X-Glu), where the product of the reaction is a clear blue color. As described hereinabove, the expression system of the invention was introduced into an intron within the GUS encoding gene. […] The following assays were designed: • 1. Non transformed protoplasts • 2. Non transformed protoplasts exposed to 10 μM BENZ • 3. Non transformed protoplasts exposed to 100 μM BENZ • 4. Protoplast transformed with plasmid syz24-2.1 without exposure to BENZ • 5. Protoplast transformed with plasmid syz24-2.1 exposed to 10 μM BENZ • 6. Protoplast transformed with plasmid syz24-2.1 exposed to 100 μM BENZ • 7. Protoplast transformed with plasmid 5060 without exposure to BENZ • 8. Protoplast transformed with plasmid 5060 exposed to 10 μM BENZ • 9. Protoplast transformed with plasmid 5060 exposed to 100 μM BENZ In all assays in which the transformed protoplasts were exposed to BENZ, the transformation and subsequent washes were performed in the presence of the corresponding BENZ concentration (10 or 100 μM). After the last wash, the protoplasts were suspended in W5 buffer containing 10 μM or 100 μM BENZ and placed at 28° C. for 48 h. Thereafter the protoplasts were collected (by spinning at 100gX3 minutes). Protoplasts were resuspended in 0.5 ml 0.5M monitol+0.5 mg X-glucuronide (sigma B5285) and incubated at 37° C. 24 h.

[3] = system: Nicotiana benthamiana leaf discs transformed with Pzp 1503/syz24-1.2 plasmid (GUS + the mutated ECE); test: GUS reporter expression in tobacco leaf discs (β-glucuronidase assay); format: cell-based; settings: MS buffer with 50 μM BENZ
Method: Protocol 5 ml Agrobacterium starter (transfected with the relevant plasmids) were grown with the selection antibiotics at 28° C. with agitation of 350 rpm overnight. Thereafter, the solution was centrifuged for 5 min. at 4500 g. The pellet was resuspended in 10 ml Induction Medium supplemented with the relevant antibiotic and 100 μM Acetosyringone, incubated for 5-6 hours at 28° C., 250 rpm and then centrifuged for 5 min at 4500 g. The bacteria were resuspended in 10 ml Infiltration Medium supplemented with 200 μM Acetosyringone (1M in DMSO). The bacteria density is measured at 660 nm to obtain OD660=1.
Leaf discs were cut from Nicotiana Benthamiana plants and put in 24 wells with 400 μl of the relevant Agrobacterium with or without 50 μM BENZ. Vacuum was applied for 8 min and then slowly released, followed by additional vacuum cycle of 1 min and slow release and incubation for 10 min. The leaf discs were then separated from the Agrobacterium suspension and resuspended with MS buffer with or without 50 μM BENZ and incubated at 24° C. for three days. At the end of the incubation, the leaf discs were subjected to β-glucuronidase (GUS) assay.
β-Glucuronidase (GUS) Assay
• 1. […]

[4] = system: F293 cells transfected with the ECE-CAS9 plasmid; test: CAS activity in F293 cells transfected with ECE-CAS9 plasmid (Bpu10I cut/uncut ratio); format: cell-based; settings: DMEM supplemented with 10 μM BENZ, 48 hours
Excerpt: In one example, the ECE regulatory element of the present invention can be used to determine the expression level of the CRISPR-CAS9 complex (Gene Bank Accession No. KF264451) allowing timely editing of the genome. The viral (Px330) CRISPER CAS system can be acquired from “addgene” (plasmid #117919). The ECE regulatory element is synthesized with the sequence of the BseRI restriction site to produce an expression system of the invention having SEQ ID NO:51, and then to be inserted into the 117919 plasmid (SEQ ID NO:57). The ECE sequence is located within the artificial hybrid intron, known to increase transcription levels.
Plasmid was transfected in to F293 cells by Lipofectamine 3000 (L3000015 ThermoFisher) according to the manufacturer instructions. Immediately following transfection cells were incubated with either DMEM or DMEM supplemented with BENZ for 48 hours.
The sgRNA is designed to target the cyclin D1 gene (Accession BC023620) at the Bpu 10I restriction site (sgRNA=[…], SEQ ID NO:60). The efficiency of the CRISPER assay is determined by extracting the DNA, digesting it with Bpu10I and measuring, by bioanalyser, the ratio between the cut and uncut fragments, uncut indicates an efficient CAS activity.

[5] = system: transgenic poplar trees with ECE in the CCR gene; test: Lignin content in transgenic poplar carrying ECE-CCR; format: in vivo, Populus tremula×Populus alba; settings: transgenic trees upon completion of BENZ treatment cycle
Excerpt: Populus trichocarpa cv. Trichobel CCR cDNA (Accession No. AJ224986) is cloned in to pTA vector using standard PCR reaction. ECE assembled by Gibson in to the middle CCR gene by introducing artificial intron. The resulted sequence is cloned under a tandem repeat of the CaMV 35S constitutive promoter and is transferred into the binary vector pBIG-HYG conferring resistance to hygromycin. Binary vector is transferred into Agrobacterium strain LB4404.
Poplar (Populus tremula×Populus alba) plants are transformed by Agrobacterium as described (Leplé et al. 1992, Plant Cell Rep. 11:137-141.) Transformants are selected by hygromycin resistance. Transformation is confirmed by molecular analysis of the insertions.
Four-to-five-month old greenhouse-grown trees are sprayed daily with 100 μM BENZ during a period of 6 months. […]
RT-PCR analysis of CCR is performed at different stages of the growth and development of the trees. […] Quantification of cDNA molecules is performed in five replicates by qPCR machine.
Lignin content is analyzed in samples from different stages of the growth and development of the trees according to Dence, 1992 (Lignin determination. In: Dence C, Lin S, editors. Methods in Lignin Chemistry. Berlin: Springer-Verlag; 1992. pp. 33-61). […] Lignin is then extracted with CH2Cl2, dried over Na2SO4, evaporated under reduced pressure at 40° C., re-dissolved in 1 mL of CH2Cl2 and analyzed by GC-MS

[6] = system: SBEIIb with ECE in transgenic rice; test: SBEIIb expression and starch content in transgenic rice carrying ECE-SBEIIb; format: in vivo, rice (Nipponbare); settings: rice grains 10 days post anthesis, activated by BENZ
Excerpt: High levels of the starch branching IIb gene in rice (SBEIIb, GQ150904.1) are typically linked to lower amylose content. Downregulating the activity of SBEIIb can lead to rice seeds with higher amylose content. The SBEIIb coding sequence is cloned from Nipponbare cDNA into pTA vector using the standard PCR reaction. The resulted clone is manipulated to carry the ECE regulatory element. The resulted altered fragment is closed into rice-transformation vector containing the wHMWG promoter and NOS terminator. The vector also contains the hygromycin resistance gene under the control of the CaMV 35S promoter. The vector is transferred into Agrobacterium tumefaciens AGL1. […]
RNA is extracted from rice grains, 10 days post anthesis. cDNA is synthesized from 5 μg of total RNA using cDNA syntheses kit. Quantitative real-time PCR is conducted on 100 ng of cDNA using the SBEIIb primers.
Protein analysis is conducted on soluble native proteins extracted from rice grains obtained 10 days post anthesis. […] Signals are recorded by automatic film processor.
Mature panicles are analyzed for their starch content. Fully developed and mature seeds are collected, weighed, dried and ground and total starch is determined using Total Starch HK Assay (Megazyme) and resistant starch is determined using Resistant Starch Assay Kit (Megazyme).

[7] = system: hpt gene with ECE in transgenic tobacco seedlings; test: Conditional expression of hygromycin resistance (hpt) gene with ECE in transgenic tobacco; format: in vivo; settings: MS media versus MS+20 μM BENZ, seven days
Excerpt: Expression of selection genes is required only during early stages of plant transformation. Following the establishment of a transgenic plant, expression of the selection gene is not required. The hpt gene, conferring resistance to hygromycin, is generated by standard PCR reaction on the pBIGHYG plasmid (binary plasmid) and cloned into pTA vector. The ECE regulatory element is inserted into the hpt gene just after the its ATG start codon by standard Gibson assembly. In addition, the reporting gene GUS: B-glucuronidase is cloned into the pTA vector downstream to the hpt gene under the 35S promoter.
The vector is transferred into Agrobacterium tumefaciens EHAP105.
Tobacco genetic transformation is carried using hygromycin as for selection using a standard transformation protocol. 20 μM BENZ is added to the regeneration and selection medium to facilitate the expression of the selection gene. […] Seeds of heterozygous plants with single insert are selected.
Ten days following planting plants transformed to either MS-based media or remained on MS+20 μM BENZ media. Seven day after, RNA is extracted from transgenic plants. cDNA is synthesized from 20 μg of total RNA using cDNA syntheses kit. Quantitative real-time PCR is conducted on 100 ng of cDNA using the hygromycin-encoding gene primers.

| Compound | CCR5 expression [1] | β-glucuronidase activity (blue color) ([2]; non-transformed protoplasts, 10 μM or 100 μM BENZ) | β-glucuronidase activity (blue color) ([2]; protoplasts transformed with control plasmid 5060 (constitutive GUS), 10 μM or 100 μM BENZ) | β-glucuronidase activity (blue color) ([2]; protoplasts transformed with syz24-2.1, W5 supplemented with 10 μM BENZ) | β-glucuronidase activity (blue color) ([2]; protoplasts transformed with syz24-2.1, W5 supplemented with 100 μM BENZ) | β-glucuronidase activity (blue color) ([3]; leaf discs transformed with Pzp 1503/syz24-1.2, three days) | β-glucuronidase activity (blue color) ([3]; leaf discs transformed with control plasmid (constitutive GUS)) | CAS activity (increase of uncut fragments) [4] | lignin levels [5] | SBEIIb protein (Western blot) [6] | expression of hygromycin-encoding gene (quantitative real-time PCR) [7] |
| --- | --- | --- | --- | --- | --- | --- | --- | --- | --- | --- | --- |
| NCCCNCCCCNCCCN [spermin, spermine] | expected to increase |  |  |  |  |  |  |  |  |  |  |
| CCNCCCNCCCNCCCNCC [BENZ, N^1,N^11-Diethylnorspermine tetrahydrochloride] |  | not observed | β-glucuronidase activity irrespective of the presence of BENZ | only when cells were incubated with W5 supplemented with 100 μM BENZ | showed β-glucuronidase activity | showed β-glucuronidase activity | expressed β-glucuronidase activity | increase in CAS activity | expected to be comparable to transgenic plants, and lower than wild type plants | increase in SBEIIb | reduced in the transgenic seedlings when grown on MS media compared to seedling that grow on MS+20 μM BENZ |
